Columns and labels:
Assay type in all cases: in vivo
[1] = test system: Echinochloa oryzacola Vasing.; assay: Test Example 1: herbicidal activity, application before weed generation in submerged conditions; conditions: Application herbicide amount 320 g/ha; Seventeenth Table
Method in brief: (§1)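 Water-diluted emulsion formulation is applied onto flood water (4 cm deep) covering alluvial soil on the day weed seeds are sown, after transplanting 2.5 leaf stage rice. Rates are expressed per hectare. Injury or control is graded 0–5 three weeks later.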

Monochoria vaginalis [2] = assay: as above; conditions: Application herbicide amount 320 g/ha; Seventeenth Table
Method in brief: as §1

Scirpus juncoides [3] = assay: as above; conditions: Application herbicide amount 320 g/ha; Seventeenth Table
Method in brief: as §1

[4] = test system: directly sowed Oryza sativa; assay: Test Example 3: effect on crop by application to foliage (Wagner pot, water depth 0.1-0.5 cm); conditions: Nineteenth Table; application to foliage; application herbicide amount 320 g/ha
Method in brief: (§2)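 Grading uses six bands of herbicidal ratio, from 0 (≤5%, almost no effect) to 5 (≥90%, almost completely withered). Treatment was a stem-and-leaf spray of diluted emulsion at a fixed g/ha on 14-day-old plants; evaluation after three weeks.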

[5] = test system: Echinochloa oryzacola Vasing.; assay: Test Example 2: herbicidal activity, application during weed generation in submerged conditions; conditions: Eighteenth Table; application herbicide amount 320 g/ha
Method in brief: (§3)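 Seeds were sown together in alluvial soil kept under 4 cm of water and grown at 25 °C to 30 °C. Once plants reached the one- to two-leaf stage, the diluted emulsion was applied to the water surface at a predetermined g/ha amount, and effects were rated 0–5 after three weeks.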

Monochoria vaginalis [6] = assay: as above; conditions: Eighteenth Table; application herbicide amount 320 g/ha
Method in brief: as §3

Scirpus juncoides [7] = assay: as above; conditions: Eighteenth Table; application herbicide amount 320 g/ha
Method in brief: as §3

[8] = test system: Echinochloa crus-galli var. crus-galli; assay: Test Example 3: herbicidal effect by application to foliage (Wagner pot, water depth 0.1-0.5 cm); conditions: Nineteenth Table; application to foliage; application herbicide amount 320 g/ha
Method in brief: as §2

Leptochloa chinensis = assay: as above; conditions: Nineteenth Table; application to foliage; application herbicide amount 320 g/ha
Method in brief: as §2

Cyperus difformis = assay: as above; conditions: Nineteenth Table; application to foliage; application herbicide amount 320 g/ha
Method in brief: as §2

SMILES: CSc1nnc2c(C(=O)Nc3nnnn3C)ccc(C(F)(F)F)n12 [2-013]
- A: Echinochloa oryzicola Vasing. (herbicidal effect grade) [1]: 5 (Herbicidal ratio of 90% or more (almost completely withered))
- C: Monochoria vaginalis (herbicidal effect grade) (Monochoria vaginalis [2]): 5 (Herbicidal ratio of 90% or more (almost completely withered))
- B: Scirpus juncoides (herbicidal effect grade) (Scirpus juncoides [3]): 4 (Herbicidal ratio of 70% or more and less than 90%)
- b (effect on crop grade) [4]: 5 (Herbicidal ratio of 90% or more (almost completely withered))
- A (Echinochloa oryzicola Vasing.) herbicidal ratio grade [5]: 5 (Herbicidal ratio of 90% or more (almost completely withered))
- C (Monochoria vaginalis) herbicidal ratio grade (Monochoria vaginalis [6]): 2 (Herbicidal ratio of 20% or more and less than 40%)
- B (Scirpus juncoides) herbicidal ratio grade (Scirpus juncoides [7]): 3 (Herbicidal ratio of 40% or more and less than 70%)
- H (herbicidal effect grade) [8]: 5 (Herbicidal ratio of 90% or more (almost completely withered))
- D (herbicidal effect grade) (Leptochloa chinensis): 5 (Herbicidal ratio of 90% or more (almost completely withered))
- E (herbicidal effect grade) (Cyperus difformis): 5 (Herbicidal ratio of 90% or more (almost completely withered))

SMILES: COCCOCc1nnc2c(C(=O)Nc3nnnn3C)ccc(C(F)(F)F)n12 [2-014]
- A: Echinochloa oryzicola Vasing. (herbicidal effect grade) [1]: 5 (Herbicidal ratio of 90% or more (almost completely withered))
- C: Monochoria vaginalis (herbicidal effect grade) (Monochoria vaginalis [2]): 5 (Herbicidal ratio of 90% or more (almost completely withered))
- B: Scirpus juncoides (herbicidal effect grade) (Scirpus juncoides [3]): 5 (Herbicidal ratio of 90% or more (almost completely withered))
- b (effect on crop grade) [4]: 5 (Herbicidal ratio of 90% or more (almost completely withered))
- A (Echinochloa oryzicola Vasing.) herbicidal ratio grade [5]: 5 (Herbicidal ratio of 90% or more (almost completely withered))
- C (Monochoria vaginalis) herbicidal ratio grade (Monochoria vaginalis [6]): 5 (Herbicidal ratio of 90% or more (almost completely withered))
- B (Scirpus juncoides) herbicidal ratio grade (Scirpus juncoides [7]): 5 (Herbicidal ratio of 90% or more (almost completely withered))
- H (herbicidal effect grade) [8]: 5 (Herbicidal ratio of 90% or more (almost completely withered))
- D (herbicidal effect grade) (Leptochloa chinensis): 5 (Herbicidal ratio of 90% or more (almost completely withered))
- E (herbicidal effect grade) (Cyperus difformis): 5 (Herbicidal ratio of 90% or more (almost completely withered))

SMILES: Cn1nnnc1NC(=O)c1ccc(C(F)(F)F)n2c(COCC(F)(F)F)nnc12 [2-015]
- A: Echinochloa oryzicola Vasing. (herbicidal effect grade) [1]: 5 (Herbicidal ratio of 90% or more (almost completely withered))
- C: Monochoria vaginalis (herbicidal effect grade) (Monochoria vaginalis [2]): 5 (Herbicidal ratio of 90% or more (almost completely withered))
- B: Scirpus juncoides (herbicidal effect grade) (Scirpus juncoides [3]): 5 (Herbicidal ratio of 90% or more (almost completely withered))
- b (effect on crop grade) [4]: 4 (Herbicidal ratio of 70% or more and less than 90%)
- A (Echinochloa oryzicola Vasing.) herbicidal ratio grade [5]: 4 (Herbicidal ratio of 70% or more and less than 90%)
- C (Monochoria vaginalis) herbicidal ratio grade (Monochoria vaginalis [6]): 4 (Herbicidal ratio of 70% or more and less than 90%)
- B (Scirpus juncoides) herbicidal ratio grade (Scirpus juncoides [7]): 5 (Herbicidal ratio of 90% or more (almost completely withered))
- H (herbicidal effect grade) [8]: 5 (Herbicidal ratio of 90% or more (almost completely withered))
- D (herbicidal effect grade) (Leptochloa chinensis): 5 (Herbicidal ratio of 90% or more (almost completely withered))
- E (herbicidal effect grade) (Cyperus difformis): 5 (Herbicidal ratio of 90% or more (almost completely withered))

SMILES: CCC(C)c1nnc2c(C(=O)Nc3nnnn3C)ccc(C(F)(F)F)n12 (stereo not shown) [2-016]
- A: Echinochloa oryzicola Vasing. (herbicidal effect grade) [1]: 5 (Herbicidal ratio of 90% or more (almost completely withered))
- C: Monochoria vaginalis (herbicidal effect grade) (Monochoria vaginalis [2]): 5 (Herbicidal ratio of 90% or more (almost completely withered))
- B: Scirpus juncoides (herbicidal effect grade) (Scirpus juncoides [3]): 5 (Herbicidal ratio of 90% or more (almost completely withered))
- b (effect on crop grade) [4]: 5 (Herbicidal ratio of 90% or more (almost completely withered))
- A (Echinochloa oryzicola Vasing.) herbicidal ratio grade [5]: 5 (Herbicidal ratio of 90% or more (almost completely withered))
- C (Monochoria vaginalis) herbicidal ratio grade (Monochoria vaginalis [6]): 5 (Herbicidal ratio of 90% or more (almost completely withered))
- B (Scirpus juncoides) herbicidal ratio grade (Scirpus juncoides [7]): 5 (Herbicidal ratio of 90% or more (almost completely withered))
- H (herbicidal effect grade) [8]: 5 (Herbicidal ratio of 90% or more (almost completely withered))
- D (herbicidal effect grade) (Leptochloa chinensis): 5 (Herbicidal ratio of 90% or more (almost completely withered))
- E (herbicidal effect grade) (Cyperus difformis): 5 (Herbicidal ratio of 90% or more (almost completely withered))

SMILES: Cc1cc(-c2nnc3c(C(=O)Nc4nnnn4C)ccc(C(F)(F)F)n23)no1 [2-017]
- A: Echinochloa oryzicola Vasing. (herbicidal effect grade) [1]: 5 (Herbicidal ratio of 90% or more (almost completely withered))
- C: Monochoria vaginalis (herbicidal effect grade) (Monochoria vaginalis [2]): 4 (Herbicidal ratio of 70% or more and less than 90%)
- B: Scirpus juncoides (herbicidal effect grade) (Scirpus juncoides [3]): 3 (Herbicidal ratio of 40% or more and less than 70%)
- b (effect on crop grade) [4]: 5 (Herbicidal ratio of 90% or more (almost completely withered))
- A (Echinochloa oryzicola Vasing.) herbicidal ratio grade [5]: 5 (Herbicidal ratio of 90% or more (almost completely withered))
- C (Monochoria vaginalis) herbicidal ratio grade (Monochoria vaginalis [6]): 4 (Herbicidal ratio of 70% or more and less than 90%)
- B (Scirpus juncoides) herbicidal ratio grade (Scirpus juncoides [7]): 4 (Herbicidal ratio of 70% or more and less than 90%)
- H (herbicidal effect grade) [8]: 5 (Herbicidal ratio of 90% or more (almost completely withered))
- D (herbicidal effect grade) (Leptochloa chinensis): 5 (Herbicidal ratio of 90% or more (almost completely withered))
- E (herbicidal effect grade) (Cyperus difformis): 5 (Herbicidal ratio of 90% or more (almost completely withered))

SMILES: CCCc1nnc2c(C(=O)Nc3nnnn3C)ccc(C(F)(F)F)n12 [2-019]
- A: Echinochloa oryzicola Vasing. (herbicidal effect grade) [1]: 5 (Herbicidal ratio of 90% or more (almost completely withered))
- C: Monochoria vaginalis (herbicidal effect grade) (Monochoria vaginalis [2]): 4 (Herbicidal ratio of 70% or more and less than 90%)
- B: Scirpus juncoides (herbicidal effect grade) (Scirpus juncoides [3]): 5 (Herbicidal ratio of 90% or more (almost completely withered))
- b (effect on crop grade) [4]: 5 (Herbicidal ratio of 90% or more (almost completely withered))
- A (Echinochloa oryzicola Vasing.) herbicidal ratio grade [5]: 4 (Herbicidal ratio of 70% or more and less than 90%)
- C (Monochoria vaginalis) herbicidal ratio grade (Monochoria vaginalis [6]): 4 (Herbicidal ratio of 70% or more and less than 90%)
- B (Scirpus juncoides) herbicidal ratio grade (Scirpus juncoides [7]): 3 (Herbicidal ratio of 40% or more and less than 70%)
- H (herbicidal effect grade) [8]: 5 (Herbicidal ratio of 90% or more (almost completely withered))
- D (herbicidal effect grade) (Leptochloa chinensis): 5 (Herbicidal ratio of 90% or more (almost completely withered))
- E (herbicidal effect grade) (Cyperus difformis): 5 (Herbicidal ratio of 90% or more (almost completely withered))

SMILES: Cn1nnnc1NC(=O)c1ccc(C(F)(F)F)n2c(COc3ccccc3)nnc12 [2-020]
- A: Echinochloa oryzicola Vasing. (herbicidal effect grade) [1]: 3 (Herbicidal ratio of 40% or more and less than 70%)
- C: Monochoria vaginalis (herbicidal effect grade) (Monochoria vaginalis [2]): 2 (Herbicidal ratio of 20% or more and less than 40%)
- B: Scirpus juncoides (herbicidal effect grade) (Scirpus juncoides [3]): 2 (Herbicidal ratio of 20% or more and less than 40%)
- b (effect on crop grade) [4]: 4 (Herbicidal ratio of 70% or more and less than 90%)
- A (Echinochloa oryzicola Vasing.) herbicidal ratio grade [5]: 2 (Herbicidal ratio of 20% or more and less than 40%)
- C (Monochoria vaginalis) herbicidal ratio grade (Monochoria vaginalis [6]): 0 (Herbicidal ratio of 5% or less (almost no effect))
- B (Scirpus juncoides) herbicidal ratio grade (Scirpus juncoides [7]): 2 (Herbicidal ratio of 20% or more and less than 40%)
- H (herbicidal effect grade) [8]: 4 (Herbicidal ratio of 70% or more and less than 90%)
- D (herbicidal effect grade) (Leptochloa chinensis): 4 (Herbicidal ratio of 70% or more and less than 90%)
- E (herbicidal effect grade) (Cyperus difformis): 4 (Herbicidal ratio of 70% or more and less than 90%)

— patent publication US9708314B2, “Heterocyclic amide compound” (NISSAN CHEMICAL INDUSTRIES, LTD., priority 2013, dated 2017)
